The assay deals with stage III colon cancer. Nature of the assay: Studie 90: fluorouracil-based adjuvant chemotherapy, survival by TP53 genotype. In kind it is in vivo, human. As to conditions: for five-years survival rate: low risk patients (1-3 positive lymph nodes). An excerpt:
Tumor specimens were collected from 411 patients enrolled in a randomised trial of fluorouracil-based adjuvant chemotherapy for stage III colon cancer patients.
Fluorouracil acts according to pathway 1 and is supposed to need a normal p53 for induction of apoptosis. The p53 gene status could be assessed in 389 tumors through standardized, gene specific sequencing of the TP53 gene.

For `O=c1[nH]cc(F)c(=O)[nH]1` [fluorouracil], the five-year survival runs as follows: (entire stage IIIA cohort) 84.5%; (stage IIIA, TP53 mutant) 78%; (stage IIIA, TP53 normal) 91%; (stage IIIB cohort) 63%; (stage IIIB, TP53 mutant) 60%; (stage IIIB, TP53 normal) 79%. Also, the “interaction between survival and TP53 genotype” value (high-risk stage III patients) is listed as “no interaction”. Besides, the five-years survival rate came out at 64.7% (TP53 mutated) and 81% (normal TP53 genotype). Moreover, the “interaction with TP53 genotype” value is recorded as “negatively interacts” (mutant TP53 genotype, low-risk stage III patients); “positively interacts” (normal p53 genotype, low risk stage III patients (N1 or IIIA and IIIB stage)). Further, the “benefit in relation to the TP53 genotype” value (stage IIIC patients) is on record as “no differential benefit”.

(Values after patent US20120171305A1, “Response Prediction in Cancer Treatment Involving p53 Adapted Cancer Therapy” (priority 2011, published 2012).)
